# How the values were obtained:
# [1] = test system: MIA PaCa-2-derived xenograft tumor; assay: Pharmacodynamic effect study of MIA PaCa-2-derived xenograft tumor model (test 11); assay type: in vivo, nude mice; conditions: MIA PaCa-2 xenograft, 20 mg/kg i.g. QD×21 days
# Method: Animal species and number: Balb/c Nude; 6 animals per group.
# Test samples: Compound 3-2, and Compound TM-1.
# Test groups: blank solvent control group;
# Compound 3-2 (20 mg/kg, i.g., QD×21 days);
# Compound TM-1 (20 mg/kg, i.g., QD×21 days).
# Animal model establishment: MIA PaCa-2 tumor cells in logarithmic growth phase were cultured in vitro and collected, and inoculated subcutaneously into the right back of nude mice at a quantity of 5×10^6 cells/each. When the tumor volume reached 150-300 mm^3, the tumor-bearing nude mice were randomly grouped. Subsequently, the animals in each group were administered, and the day of the first administration was defined as day 1 of the test.
# Administration frequency: once a day.
# General state observation: observation time and frequency: once a day; observation indexes or contents: including but not limited to administration location, appearance and signs, general behavioral activities, mental status, death and other abnormal performance of the animals. The animals were euthanized at the end of the test.
# Tumor volume calculation: V=½×long diameter×short diameter^2 (mm^3).
# [2] = Acute toxicity test, single oral dose in SD rats; assay type: in vivo; conditions: SD rats, single oral gavage, 500, 1000, 2000 mg/kg
# Method: (§1) Test samples: Compound 3-2, and Compound 3-6.
# (§2) Animal species and number: SD rat; 6 animals per group (half male and half female).
# (§3) Administration mode: oral administration by gavage.
# Animal grouping and administration dose: vehicle blank group, Compound 3-2 group (500 mg/kg, 1000 mg/kg, 2000 mg/kg), Compound 3-6 group (500 mg/kg, 1000 mg/kg, 2000 mg/kg).
# Administration frequency: once.
# (§4) Death, morbidity, respiration, secretions, feces, and diet, drinking situation and so on were observed, and the changes in body weight of the rats during the administration period were recorded. The contents of detailed clinical observation included but were not limited to behavioral activity, skin, coat, eyes, ears, nose, abdomen, external genitalia, anus, extremities, feet, and respiration. The animals in each group were euthanized at the end of observation period, and all animals were dissected and subjected to gross observation.
# [3] = Safety test for repeated administration for 14 days in SD rats; assay type: in vivo; conditions: oral gavage once a day for 14 days, 50, 150, 400 mg/kg
# Method: as §1, §2, §3
# Animal grouping and administration dose: vehicle blank group, Compound 3-2 group (50 mg/kg, 150 mg/kg, 400 mg/kg), Compound 3-6 group (50 mg/kg, 150 mg/kg, 400 mg/kg).
# Administration frequency: once a day for 14 days.
# as §4, with “General clinical observations were performed 2 times a day (once in the morning and once in the afternoon) during the test period. Death,” for “Death,”, “of administration” for “of observation”
# [4] = Analysis regarding therapeutic safety window; conditions: in vivo, oral, 5 days
smiles,measurement,setting,value
C=CC(=O)N1CCN(c2nc(=O)n(-c3c(C)ccnc3C(C)C)c3nc(-c4ccccc4C=C)c(Cl)cc23)[C@@H](C)C1 [Compound 3-2],Tumor inhibition rate (%),[1],+++ (“+++” represents a tumor inhibition rate of >140%)
same,death or morbidity after single dose (in words),[2],No animals in each group were dead or close to death
same,MTD,"[2]; both sexes, rat, in vivo, read-out: maximum tolerated dose (MTD)",≥ 2000 mg/kg
same,"water and food intake, activity and body weight during the administration period (in words)",[3],no significant abnormality was showed
same,therapeutic safety window: ratio of toxic dose to effective dose,[4],greater than 80
